Patent US12036193B2, “Synergistic bioactive compositions for treating neurological disorders” (priority 2019, dated 2024)

How the values were obtained:
Interleukin - 6 = test: Rat Interleukin-6 level after global cerebral ischemia/reperfusion; type: in vivo, Wistar rats; conditions: mean ± SEM, n=6; oral 10 days, 30 min ischemia on 7th day + 72 hrs reperfusion; Standard 9.3, Agmatine sulphate 310, Bio-optimized PEA 372, combination 310+372 mg/kg; I/R control 121.83 ± 1.65
TNF alpha = test: Rat TNF alpha level after global cerebral ischemia/reperfusion; type: in vivo, Wistar rats; conditions: mean ± SEM, n=6; oral 10 days, 30 min ischemia on 7th day + 72 hrs reperfusion; Standard 9.3, Agmatine sulphate 310, Bio-optimized PEA 372, combination 310+372 mg/kg; I/R control 172.17 ± 6.35
[1] = Rat body weight in global ischemia reperfusion induced brain injury study; conditions: n=6, Standard 9.3 mg/kg, Agmatine sulphate 310 mg/kg, Bio-optimized PEA 372 mg/kg, combination 310+372 mg/kg, p.o. daily
[2] = Rat feed consumption in global ischemia reperfusion induced brain injury study; conditions: Standard 9.3 mg/kg, Agmatine sulphate 310 mg/kg, Bio-optimized PEA 372 mg/kg, combination 310+372 mg/kg, p.o. daily

N=C(N)NCCCCN.O=S(=O)(O)O [Agmatine sulphate, 1-(4-Aminobutyl)guanidine sulfate]
Interleukin - 6 Levels (Interleukin - 6): 91.39 ± 0.92 pg/mL | TNF alpha Level (TNF alpha): 142.00 ± 1.53 pg/mL | Body Weight, Week 01 ([1]; Week 01, mean ± SEM): 224.33 ± 0.42 gm | Body Weight, Basal ([1]; basal, mean ± SEM): 215.00 ± 0.73 gm | Feed Consumption, Week 01 [2]: 99.57 ± 1.19 gm
